In PubChem BioAssay AID588571 (Sanford-Burnham Center for Chemical Genomics, 2011):
Activity calls are given as the source filed them.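 Rule for the calls: active = mean IC50 at or below 20 µM; inactive = the rest.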

System: CHO-CHOP cells viability, ATPlite luminescence, 6 h
Assay: CHO-CHOP cell viability loss after compound exposure – 6 h exposure, ATPlite luminescence, cytotoxicity control for UPR adaptive arm activator project, SAR follow-up (AID 588571)

Compound	IC50
Cc1nc(Nc2nc(-c3ccccc3)cc(=O)[nH]2)nc2ccccc12	60.1 µM (inactive)
Cc1ccc(NC(=O)c2cc(-c3ccncc3)nc3ccccc23)cc1	> 80 µM (inactive)
O=C(Nc1ccc(Cl)cc1)c1cc(-c2ccncc2)nc2ccccc12	75.4 µM (inactive)
O=C(Nc1ccc(Br)c(C(F)(F)F)c1)c1cc(-c2ccncc2)nc2ccccc12	> 80 µM (inactive)
Cc1cc(Br)cc(NC(=O)c2cc(-c3ccncc3)nc3ccccc23)c1	> 80 µM (inactive)
O=C(Nc1ccc(C(F)(F)F)cc1)c1cc(-c2ccncc2)nc2ccccc12	70.4 µM (inactive)
O=C(Nc1ccc(F)cc1)c1cc(-c2ccncc2)nc2ccccc12	> 80 µM (inactive)
